Reference: PMC9496346, “Controversial Role of Transferrin in the Transport of Ruthenium Anticancer Drugs” (Biomolecules, 2022)

What was measured:
[1] = system: HepG2 cells; experiment: Cellular Ru uptake by HepG2 cells (ICP-MS); assay type: cell-based, human; details: HepG2, 60 μM Ru, 24 h; B2 vs B1
Experimental: Human hepatoma (HepG2) cells were originally received from the American Type Culture Collection (ATCC, Cat. No. HB-8065) and cultured as described previously. This cell line was used for Tf-dependent metal uptake studies because of the high expression levels of human TfR1 [43]. For treatments, the cells were grown to confluence in 24-well plates, using Advanced DMEM (Dulbecco’s modified Eagle’s minimal essential medium, Invitrogen Cat. No. 12491-015), supplemented with L-glutamine (2.0 mM), antibiotic-antimycotic mixture (100 mg mL^−1 penicillin, 100 mg mL^−1 steptomycin and 0.25 mg mL^−1 amphotericin B) and fetal calf serum (heat-inactivated, 2% v/v). Confluent cell layers were washed with serum-free treatment medium (DMEM, Invitrogen Cat. No. 19938-025), supplemented with glutamine, antibiotic-antimycotic mixture and 1.0 mg mL^−1 AlbuMax (Gibco Cat. No. 11020-021). […] After washing, the wells were filled with the treatment medium containing metal additions (detailed in B1–B9 of Table 1). The treatment media were sterilized by filtration through 0.2 µm membrane filters, and pre-equilibrated for 24 h at 310 K and 5% CO2 prior to the addition to cells, except for sample B1 that was used immediately after preparation. All the treatments were performed in triplicate, using random well positions to avoid experimental bias.
After 24 h incubation with the treatment media (B1–B9 in Table 1), the medium from each well was collected for the determination of Ru–protein binding and BLI analyses, and the wells were washed twice with PBS (0.50 mL/well). […]
The values of metal uptake were normalized using protein content in cell lysates. For protein determination, Bradford reagent (Sigma Cat. No B6916; 98 µL) was mixed with a small aliquot (2.0 µL) of each cell lysate, and the absorbance at 600 nm was measured using a Victor V3 plate reader. […] The test and calibration samples were analyzed in triplicate. […]

[2] = system: protein in cell culture medium; experiment: Ru–protein binding in cell culture medium (gel filtration, GFAAS); assay type: in vitro ADME; details: basal medium with ~15 μM BSA, conditions B1 and B2
Experimental: An aliquot (50 µL) of cell culture medium from each well was passed through a separate Bio-Rad P6 centrifugal gel filtration column that was pre-saturated with PBS, according to manufacturer’s instructions. The eluants (50 ± 5 µL volume) contained protein-bound Ru fractions (>6 kDa molecular mass). The protein recovery, measured by Bradford assays, exceeded 95%. Another 50 µL sample of each medium was taken into separate tubes. Both the original and gel-filtered media samples were digested with 0.20 mL of 65% (v/v) HNO3 for 24 h. The digests were diluted with 0.75 mL of 0.10 M HCl, and the Ru content in the samples was determined by GFAAS. The percentage of protein binding was determined from the ratio of Ru content in the gel-filtered and original media samples [30, 31].

[3] = system: T1, recombinant human transferrin receptor 1 (TfR1); experiment: BLI of Tf–TfR1 binding in dilute human serum pre-treated with metal complexes; details: serum incubated with 100 μM Ru complex or 60 μM Fe(III) as citrate
T1 construct: extracellular domain (Cyst89-Phe760), (His)6-tagged at the N-terminus; purchased Sino Biological, Beijing, China (TfR1); Sigma (human serum, Cat. No. H4522, as source of Tf) 11020-H07H
Experimental: The effects of Ru complexes on the Tf cycle were determined by BLI using previously developed protocols. The instrument used was a single-channel BLItz analyser (ForteBio, Menlo Park, CA, USA) with a tube holder (250 µL solution volume) and Ni(II)–nta coated optical probes held at 295 ± 1 K. Measurements used the Advanced Kinetics mode. […] Solutions of metal–Tf adducts (typical final Tf concentrations 150 nM or 1.0 µM) were prepared in the binding buffer (Section 2.1). The pH 7.4 binding buffer was used for Tf binding and dissociation from the probe, and the pH 5.6 buffer (Section 2.1) was used to mimic the endosomal step of the Tf cycle. Metal–Tf solutions (A1–A9 in Table 1) were diluted 100–400-fold, cell culture media were diluted 30-fold, and human serum samples were diluted 200-fold with the binding buffer immediately before the BLI measurements. All BLI data were background corrected by using data from buffer only runs with the same TfR1-loaded optical probe. Consistent BLI results were obtained in at least two independent measurements, using different probes and different batches of Tf solutions. Calculations of the Tf–TfR1 binding constants were performed using the 1:1 binding model (BLItz software, Version 1.1, Forte-Bio 2013), which can be used as a reasonable approximation of the physiological 2:2 Tf–TfR1 binding mechanism at low Tf concentrations. […]
(b) BLI response curves for dilute human serum samples in the presence or absence of metal complexes. Intact commercial human serum (Sigma H4522) was incubated with Fe(III)-citrate (60 µM) or with Ru complexes (100 µM) for 4 h at 310 K, then diluted 200-fold (to [Tf] ~ 150 nM) with the binding buffer (20 mM HEPES, 25 mM NaHCO3, 140 mM NaCl, pH = 7.4), and analyzed with the TfR1-loaded BLI probe. Designations of the steps in Tf cycle (A–D) correspond to those in Figure 1d-f, main text. Calculated KD values (1:1 binding model, BLItz software) were as follows: 8.0 nM (serum + Fe(III) citrate); or 28 ± 2 nM (serum in the presence or absence of Ru complexes). Typical anticancer Ru complexes, NAMI-A, KP1019 and RAPTA-C, were synthesized and characterized previously in the Lay group.
(1 picture or pasted object on this page, not shown here)

[4] = cited from earlier work

## [Cl-].[Cl-].[Cl-].[Cl-].[Ru+3].c1ccc2[nH][nH+]cc2c1.c1ccc2[nH]ncc2c1.c1ccc2[nH]ncc2c1 [KP1019, (IndH)[Ru^IIICl4(Ind)2]]
[1]
  Decrease in Ru uptake after decomposition in cell culture medium for 24 h prior to addition to cells, vs fresh solution: ~ 30 fold
[2]
  Protein-bound proportion of KP1019 decomposition products in basal medium: ~ 50%
[3]
  Effect on Tf–TfR1 binding in whole human serum: did not have any effect
[4]; human pharmacokinetic studies
  Tf binding of KP1019 decomposition products in blood serum, share of total Ru: 1–2%
[4]; patients treated with KP1019 in clinical trials
  Typical peak Ru concentrations in the blood of patients: 0.1 to 0.4 mM
